The values below come from patent US11541055B2, “Inhibitors of human immunodeficiency virus replication” (ViiV Healthcare UK (No. 5) LIMITED, priority 2018, dated 2023).

Data set [1] concerns recombinant NL4-3 virus (Renilla luciferase) in MT-2 cells. The data set can be described thus: HIV cell culture assay (antiviral activity, luciferase readout). The class given is cell-based. To be noted: Renilla, NL43. A digest of the protocol:
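Antiviral EC50 was derived via the median effect equation from luciferase signal. The signal came from MT-2 cultures infected for 4–5 days with a nef-deleted, Renilla luciferase-expressing NL4-3 reporter virus (made in 293T cells) in the presence of compound dilutions.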

Data set [2] in a line: Compound cytotoxicity, XTT-based colorimetric assay. The class given is cell-based. The conditions noted are these: human; uninfected MT2 cells, day 4, XTT. A digest of the protocol:
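Run under the antiviral-assay protocol but without virus. Viability was read on day 4 and CC50 values were derived from the readout.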

For orientation: EC50 means the concentration that produces a half-maximal response. Broadly, the CC50 is the concentration at which the toxic effect on the cells reaches its halfway point. Take `CS(=O)(=O)Nc1nn(CC(F)F)c2c(-n3c([C@H](Cc4cc(F)cc(F)c4)NC(=O)Cn4nc(C(F)F)c5c4C(F)(F)[C@@H]4C[C@H]54)nc4cc(-c5nccc(C(F)(F)F)n5)ccc4c3=O)ccc(Cl)c12` (atropisomer, axis not shown) [Example 128, N-[(1S)-1-{3-[4-chloro-1-(2,2-difluoroethyl)-3-methanesulfonamido-1H-indazol-7-yl]-4-oxo-7-[4-(trifluoromethyl)pyrimidin-2-yl]-3,4-dihydroquinazolin-2-yl}-2-(3,5-difluorophenyl)ethyl]-2-[(2S,4R)-9-(difluoromethyl)-5,5-difluoro-7,8-diazatricyclo[4.3.0.0^2,^4]nona-1(6),8-dien-7-yl]acetamide]: the concentration for a half-maximal effect (EC50) in data set [1] came to 0.079 nM. Further, the 50% cytotoxic concentration (CC50) at 4 days in data set [2] is over 500 nM.

`COc1ccc(-c2ccc3c(=O)n(-c4ccc(Cl)c5c(NS(C)(=O)=O)nn(CC(F)F)c45)c([C@H](Cc4cc(F)cc(F)c4)NC(=O)Cn4nc(C(F)F)c5c4C(F)(F)[C@@H]4C[C@H]54)nc3c2)nn1` (atropisomer, axis not shown) [Example 129, N-[(1S)-1-{3-[4-chloro-1-(2,2-difluoroethyl)-3-methanesulfonamido-1H-indazol-7-yl]-7-(6-methoxypyridazin-3-yl)-4-oxo-3,4-dihydroquinazolin-2-yl}-2-(3,5-difluorophenyl)ethyl]-2-[(2S,4R)-9-(difluoromethyl)-5,5-difluoro-7,8-diazatricyclo[4.3.0.0^2,^4]nona-1(6),8-dien-7-yl]acetamide]: the EC50 in data set [1] turned out to be 0.054 nM. For the same compound, the CC50 at 4 days in data set [2] was over 500 nM.

In the case of `CC(C)(C)S(=O)(=O)c1ccccc1-c1ccc2c(=O)n(-c3ccc(Cl)c4c(NS(C)(=O)=O)nn(CC(F)F)c34)c([C@H](Cc3cc(F)cc(F)c3)NC(=O)Cn3nc(C(F)F)c4c3C(F)(F)[C@@H]3C[C@H]43)nc2c1` (atropisomer, axis not shown) [Example 130], the EC50 in data set [1] is 0.13 nM. Moreover, the CC50 at 4 days in data set [2] is over 500 nM.

Take `Cc1cc(-c2ccc3c(=O)n(-c4ccc(Cl)c5c(NS(C)(=O)=O)nn(CC(F)F)c45)c([C@H](Cc4cc(F)cc(F)c4)NC(=O)Cn4nc(C(F)F)c5c4C(F)(F)[C@@H]4C[C@H]54)nc3c2)nc(C)n1` (atropisomer, axis not shown) [Example 131, N-[(1S)-1-{3-[4-chloro-1-(2,2-difluoroethyl)-3-methanesulfonamido-1H-indazol-7-yl]-7-(2,6-dimethylpyrimidin-4-y1)-4-oxo-3,4-dihydroquinazolin-2-y1}-2-(3,5-difluorophenyl)ethyl]-2-[(2S,4R)-9-(difluoromethyl)-5,5-difluoro-7,8-diazatricyclo[4.3.0.0^2,^4]nona-1(6),8-dien-7-yl]acetamide]: in data set [1], the EC50 was 0.038 nM. Further, the CC50 at 4 days in data set [2] was over 500 nM.

Regarding `CS(=O)(=O)Nc1nn(CC(F)F)c2c(-n3c([C@H](Cc4cc(F)cc(F)c4)NC(=O)Cn4nc(C(F)F)c5c4C(F)(F)[C@@H]4C[C@H]54)nc4cc(-c5nccc(C(F)F)n5)ccc4c3=O)ccc(Cl)c12` (atropisomer, axis not shown) [Example 132], in data set [1], the EC50 stood at 0.06 nM. This compound also gave a CC50 at 4 days in data set [2] of over 500 nM.

In the case of `Cc1nnc(-c2ccc3c(=O)n(-c4ccc(Cl)c5c(NS(C)(=O)=O)nn(CC(F)F)c45)c([C@H](Cc4cc(F)cc(F)c4)NC(=O)Cn4nc(C(F)F)c5c4C(F)(F)[C@@H]4C[C@H]54)nc3c2)nc1C` (atropisomer, axis not shown) [Example 133, N-[(1S)-1-{3-[4-chloro-1-(2,2-difluoroethyl)-3-methanesulfonamido-1H-indazol-7-yl]-7-(5,6-dimethyl-1,2,4-triazin-3-yl)-4-oxo-3,4-dihydroquinazolin-2-yl}-2-(3,5-difluorophenyl)ethyl]-2-[(2S,4R)-9-(difluoromethyl)-5,5-difluoro-7,8-diazatricyclo[4.3.0.0^2,^4]nona-1(6),8-dien-7-yl]acetamide], the EC50 in data set [1] worked out at 0.04 nM. This compound also returned a CC50 at 4 days in data set [2] of over 500 nM.

`Cc1ccc(-c2ccc3c(=O)n(-c4ccc(Cl)c5c(NS(C)(=O)=O)nn(CC(F)F)c45)c([C@H](Cc4cc(F)cc(F)c4)NC(=O)Cn4nc(C(F)F)c5c4C(F)(F)[C@@H]4C[C@H]54)nc3c2)nn1` (atropisomer, axis not shown) [Example 134, N-[(1S)-1-{3-[4-chloro-1-(2,2-difluoroethyl)-3-methanesulfonamido-1H-indazol-7-yl]-7-(6-methylpyridazin-3-yl)-4-oxo-3,4-dihydroquinazolin-2-yl}-2-(3,5-difluorophenyl)ethyl]-2-[(2S,4R)-9-(difluoromethyl)-5,5-difluoro-7,8-diazatricyclo[4.3.0.0^2,^4]nona-1(6),8-dien-7-yl]acetamide]: the EC50 in data set [1] is 0.032 nM. In data set [2], this compound yielded a cytotoxic concentration (CC50) at 4 days of over 500 nM.

On to `CS(=O)(=O)Nc1nn(CC(F)F)c2c(-n3c([C@H](Cc4cc(F)cc(F)c4)NC(=O)Cn4nc(C(F)F)c5c4C(F)(F)[C@@H]4C[C@H]54)nc4cc(-c5cccnn5)ccc4c3=O)ccc(Cl)c12` (atropisomer, axis not shown) [Example 135, N-[(1S)-1-{3-[4-chloro-1-(2,2-difluoroethyl)-3-methanesulfonamido-1H-indazol-7-yl]-4-oxo-7-(pyridazin-3-yl)-3,4-dihydroquinazolin-2-yl}-2-(3,5-difluorophenyl)ethyl]-2-[(2S,4R)-9-(difluoromethyl)-5,5-difluoro-7,8-diazatricyclo[4.3.0.0^2,^4]nona-1(6),8-dien-7-yl]acetamide], for which the EC50 in data set [1] amounted to 0.054 nM. The compound further gave a cytotoxic concentration (CC50) at 4 days in data set [2] of over 500 nM.

Regarding `CS(=O)(=O)Nc1nn(CC(F)F)c2c(-n3c([C@H](Cc4cc(F)cc(F)c4)NC(=O)Cn4nc(C(F)F)c5c4C(F)(F)[C@@H]4C[C@H]54)nc4cc(-c5ncccc5S(C)(=O)=O)ccc4c3=O)ccc(Cl)c12` (atropisomer, axis not shown) [Example 136, N-[(1S)-1-{3-[4-chloro-1-(2,2-difluoroethyl)-3-methanesulfonamido-1H-indazol-7-yl]-7-(3-methanesulfonylpyridin-2-yl)-4-oxo-3,4-dihydroquinazolin-2-yl}-2-(3,5-difluorophenyl)ethyl]-2-[(2S,4R)-9-(difluoromethyl)-5,5-difluoro-7,8-diazatricyclo[4.3.0.0^2,^4]nona-1(6),8-dien-7-yl]acetamide], the EC50 in data set [1] came to 0.046 nM. In data set [2], this compound registered a CC50 at 4 days of over 500 nM.

`Cc1cc(C)nc(-c2ccc3c(=O)n(-c4ccc(Cl)c5c(NS(C)(=O)=O)nn(CC(F)F)c45)c([C@H](Cc4cc(F)cc(F)c4)NC(=O)Cn4nc(C(F)F)c5c4C(F)(F)[C@@H]4C[C@H]54)nc3c2)c1` (atropisomer, axis not shown) [Example 137, N-[(1S)-1-{3-[4-chloro-1-(2,2-difluoroethyl)-3-methanesulfonamido-1H-indazol-7-yl]-7-(4,6-dimethylpyridin-2-yl)-4-oxo-3,4-dihydroquinazolin-2-yl}-2-(3,5-difluorophenyl)ethyl]-2-[(2S,4R)-9-(difluoromethyl)-5,5-difluoro-7,8-diazatricyclo[4.3.0.0^2,^4]nona-1(6),8-dien-7-yl]acetamide]: the EC50 in data set [1] was found to be 0.2 nM. The compound also gave a 50% cytotoxic concentration (CC50) at 4 days in data set [2] of over 500 nM.

For the compound `CCc1cc(-c2ccc3c(=O)n(-c4ccc(C)c5c(NS(C)(=O)=O)nn(C)c45)c([C@H](Cc4cc(F)cc(F)c4)NC(=O)Cn4nc(C(F)F)c5c4C(F)(F)[C@@H]4C[C@H]54)nc3c2)nc(C)n1` (atropisomer, axis not shown) [Example 139, 2-[(2S,4R)-9-(difluoromethyl)-5,5-difluoro-7,8-diazatricyclo[4.3.0.0^2,^4]nona-1(6),8-dien-7-yl]-N-[(1S)-2-(3,5-difluorophenyl)-1-[7-(6-ethy1-2-methylpyrimidin-4-yl)-3-(3-methanesulfonamido-1,4-dimethyl-1H-indazol-7-yl)-4-oxo-3,4-dihydroquinazolin-2-yl]ethyl]acetamide], in data set [1], the concentration for a half-maximal effect (EC50) was 0.13 nM. This compound also came in with a cytotoxic concentration (CC50) at 4 days in data set [2] of over 500 nM.

Consider `Cc1ncc(F)c(-c2ccc3c(=O)n(-c4ccc(C)c5c(NS(C)(=O)=O)nn(C)c45)c([C@H](Cc4cc(F)cc(F)c4)NC(=O)Cn4nc(C(F)F)c5c4C(F)(F)[C@@H]4C[C@H]54)nc3c2)n1` (atropisomer, axis not shown) [Example 140, 2-[(2S,4R)-9-(difluoromethyl)-5,5-difluoro-7,8-diazatricyclo[4.3.0.0^2,^4]nona-1(6),8-dien-7-yl]-N-[(1S)-2-(3,5-difluorophenyl)-1-[7-(5-fluoro-2-methylpyrimidin-4-yl)-3-(3-methanesulfonamido-1,4-dimethyl-1H-indazol-7-yl)-4-oxo-3,4-dihydroquinazolin-2-yl]ethyl]acetamide], for which, in data set [1], the EC50 was 0.097 nM. The same compound had a CC50 at 4 days in data set [2] of over 500 nM.

As for `Cc1ccc(-n2c([C@H](Cc3cc(F)cc(F)c3)NC(=O)Cn3nc(C(F)F)c4c3C(F)(F)[C@@H]3C[C@H]43)nc3cc(-c4cccnn4)ccc3c2=O)c2c1c(NS(C)(=O)=O)nn2C` (atropisomer, axis not shown) [Example 141, 2-[(2S,4R)-9-(difluoromethyl)-5,5-difluoro-7,8-diazatricyclo[4.3.0.0^2,^4]nona-1(6),8-dien-7-yl]-N-[(1S)-2-(3,5-difluorophenyl)-1-[3-(3-methanesulfonamido-1,4-dimethyl-1H-indazol-7-yl)-4-oxo-7-(pyridazin-3-yl)-3,4-dihydroquinazolin-2-yl]ethyl]acetamide], in data set [1], the EC50 stood at 0.13 nM. For the same compound, in data set [2], the CC50 at 4 days was over 500 nM.
